Laboratory results reported in patent US20150045424A1, “COMPOSITION USEFUL FOR THE TREATMENT OF TYPE 2 DIABETES” (SIGMA-TAU INDUSTRIE FARMACEUTICHE RIUNITE S.P.A., priority 2007, published 2015).

Columns and labels:
Assay type in all cases: in vivo, mouse
C57BL/KsJ db/db mice [1] = assay: Plasma fructosamine levels of db/db mice (indicator of protein glycosylation); details: oral twice daily for 25 days, post-absorption (fasting 9 a.m. to 4.30 p.m.), 7.5 hours after last treatment, n=6
Description: (§1) The C57BL/KsJ db/db mice used in the experiments were supplied by Jackson Lab (via Ch. River). After 10 days of acclimatisation in standard conditions (22±2 [deg.]C.; 55±15% humidity; 15-20 air changes/hour; 12 hour light-darkness cycle with light from 7 a.m. to 7 p.m.) on a standard 4 RF21 diet (Mucedola), blood samples were taken in post-absorption conditions (fasting from 8.30 a.m. to 4.30 p.m.) from the caudal vein with the aid of a Jelco 22G catheter (Johnson and Johnson). Glucose, insulin, triglyceride, cholesterol, free fatty acid and urea levels were checked in the plasma to ensure well-matched distribution of the mice in the treatment groups.
(§2) The mice were divided into groups and treated orally twice daily with:
(§3) Simvastatin 100 mg/kg; L-carnitine inner salt 400 mg/kg; acetyl L-carnitine HCl 592 mg/kg (equimolar amount respect to L-carnitine); propionyl L-carnitine HCl 627 mg/kg (equimolar amount respect to L-carnitine); L-carnitine inner salt 400 mg/kg+Simvastatin 100 mg/kg; acetyl L-carnitine HCl 592 mg/kg+Simvastatin 100 mg/kg; propionyl L-carnitine HCl 627 mg/kg+Simvastatin 100 mg/kg.
(§4) In the course of the experiment, serum glucose levels, glucose tolerance (OGTT), a number of lipid status variables and weight gain were monitored.

C57BL/KsJ db/db mice [2] = assay: Oral glucose tolerance test (OGTT) in db/db mice; details: oral twice daily for 18 days, OGTT glucose 3 g/kg, fasted 18 hours, 5 hours after last treatment, n=6
Description: as §1, §2, §3, §4

C57BL/KsJ db/db mice [3] = assay: Plasma triglyceride levels of db/db mice; details: oral twice daily for 25 days, post-absorption (fasting 9 a.m. to 4.30 p.m.), 7.5 hours after last treatment, n=6
Description: as §1, §2, §3, §4

C57BL/KsJ db/db mice [4] = assay: Blood glucose levels of db/db mice (feeding, post-absorption, fasting); details: n=6
Text: A much used genetically diabetic mouse model is the C57BL/KsJ db/db mouse.
The genetic basis of this model is a defect in the leptin receptor gene which gives rise to leptin resistance and leads to hyperphagia, obesity, hyperinsulinaemia and insulin resistance, with subsequent symptoms of insufficient insulin secretion and hyperglycaemia (Kodama et al., Diabetologia 37: 739-744, 1994; Chen et al, Cell 84: 491-495, 1996).
as §1
At the start of treatment, the body weight of the animals was checked and monitoring of the animals' consumption of water and feed was scheduled.
as §2, §3, §4

C57BL/KsJ db/db mice [5] = assay: Plasma HDL-cholesterol levels of db/db mice; details: oral twice daily for 25 days, post-absorption (fasting 9 a.m. to 4.30 p.m.), 7.5 hours after last treatment, n=6
Description: as §1, §2, §3, §4

[6] = oral twice daily for 12 days, blood sample in feeding condition, approximately 15 hours after last treatment
[7] = oral twice daily for 12 days, post-absorption condition (fasting 9 a.m. to 5 p.m.), 8 hours after last treatment
[8] = oral twice daily for 18 days, fasted for 18 hours, 5 hours after last treatment

SMILES: CC(=O)O[C@H](CC(=O)[O-])C[N+](C)(C)C [Acetyl L-carnitine, acetyl L-carnitine]
- Fructosamine Mean values (C57BL/KsJ db/db mice [1]): 0.85 mM
- AUC Glucose (OGTT) Mean values (C57BL/KsJ db/db mice [2]): 49332.3 u.a.
- Triglycerides Mean values (C57BL/KsJ db/db mice [3]): 85.6 mg/dL
- Glucose Mean values (C57BL/KsJ db/db mice [4]; [6]): 468.0 mg/dL
- Glucose Mean values (C57BL/KsJ db/db mice [4]; [7]): 416.1 mg/dL
- Glucose Mean values (C57BL/KsJ db/db mice [4]; [8]): 332.0 mg/dL
- HDL-cholesterol Mean values (C57BL/KsJ db/db mice [5]): 84.5 mg/dL

SMILES: C[N+](C)(C)C[C@H](O)CC(=O)[O-] [L-carnitine]
- Fructosamine Mean values (C57BL/KsJ db/db mice [1]): 0.81 mM
- AUC Glucose (OGTT) Mean values (C57BL/KsJ db/db mice [2]): 50187.8 u.a.
- Triglycerides Mean values (C57BL/KsJ db/db mice [3]): 85.7 mg/dL
- Glucose Mean values (C57BL/KsJ db/db mice [4]; [6]): 470.0 mg/dL
- Glucose Mean values (C57BL/KsJ db/db mice [4]; [7]): 416.5 mg/dL
- Glucose Mean values (C57BL/KsJ db/db mice [4]; [8]): 324.8 mg/dL
- HDL-cholesterol Mean values (C57BL/KsJ db/db mice [5]): 84.0 mg/dL

SMILES: CCC(=O)O[C@H](CC(=O)[O-])C[N+](C)(C)C [Propionyl L-carnitine, propionyl L-carnitine]
- Fructosamine Mean values (C57BL/KsJ db/db mice [1]): 0.81 mM
- AUC Glucose (OGTT) Mean values (C57BL/KsJ db/db mice [2]): 49005.5 u.a.
- Triglycerides Mean values (C57BL/KsJ db/db mice [3]): 86.2 mg/dL
- Glucose Mean values (C57BL/KsJ db/db mice [4]; [6]): 475.5 mg/dL
- Glucose Mean values (C57BL/KsJ db/db mice [4]; [7]): 411 mg/dL
- Glucose Mean values (C57BL/KsJ db/db mice [4]; [8]): 328.6 mg/dL
- HDL-cholesterol Mean values (C57BL/KsJ db/db mice [5]): 80.9 mg/dL

SMILES: CCC(C)(C)C(=O)O[C@H]1C[C@@H](C)C=C2C=C[C@H](C)[C@H](CC[C@@H]3C[C@@H](O)CC(=O)O3)[C@H]21 [Simvastatin]
- Fructosamine Mean values (C57BL/KsJ db/db mice [1]): 0.76 mM
- AUC Glucose (OGTT) Mean values (C57BL/KsJ db/db mice [2]): 50973.3 u.a.
- Triglycerides Mean values (C57BL/KsJ db/db mice [3]): 83.6 mg/dL
- Glucose Mean values (C57BL/KsJ db/db mice [4]; [6]): 465.0 mg/dL
- Glucose Mean values (C57BL/KsJ db/db mice [4]; [7]): 418.1 mg/dL
- Glucose Mean values (C57BL/KsJ db/db mice [4]; [8]): 328.3 mg/dL
- HDL-cholesterol Mean values (C57BL/KsJ db/db mice [5]): 74.5 mg/dL
